Patent US20180116213A1 (priority 2015, published 2018)

Experiments:
[1] = test system: leaf discs of the common lawn weed Plantiago major; experiment: Leaf disc bioassay, Plantiago major leaf discs; parameters: key to necrosis and chlorosis 18 HAT / necrosis and chlorosis 36 HAT: 0: no damage; +: minor damages; ++: severe damages on up to 50% of leave surface; +++: damages on more than 50% of leave surface; ++++: 100% damage
From the text: (§1) The plants and leaves were visually assessed for damages by necrosis and chlorosis with the following scale for evaluation: • 0: no damage • +: minor damages • ++: severe damages on up to 50% of leave surface • +++: damages on more than 50% of leave surface • ++++: 100% damage
5 mm discs were cut from leaves of plants from Plantiago major, Sesamum indicum, Aegopodium potagraria and Chelidonium majus using a paper punch (5 mm). 3 leaf discs of 5 mm Ø were placed in each well of 12-well microtiter plates. Each well containing 2 ml deionized H2O, or solutions of various concentrations of glyphosate, 2,4-D or synergistic mixtures (M). The plates were incubated under continuous light at 20° C. for the listed times. The leaf discs were visually assessed for chlorosis and necrosis at various times after treatment according to the scale for classification. The visual rating utilized a rating scale from 0 to ++++, where 0=no damage by necrosis/chlorosis, and ++++=total damage by chlorosis/necrosis (see Literature).
3 leaf discs of 5 mm Ø were placed in each well of 12-well microtiter plates. Each well containing 2 ml deionized H2O, or solutions of various concentrations of 2,4-D or synergistic mixture M4 with a 1:1 mixture of citric acid and SDS. The plates were incubated under continuous light at 20° C. for the listed times. The leaf discs were visually assessed for chlorosis and necrosis according to the scale for classification and listed for hours after treatment (HAT). The visual rating utilized a rating scale from 0 to ++++, where 0=no damage by necrosis/chlorosis, and ++++=total damage by chlorosis/necrosis.

[2] = test system: plant leaves; experiment: Different tests (leaf disc bioassays, growth chamber trials, field trials), summary; conditions: herbicide alone at a concentration of 0.1% to 0.25%
Method: The activity of the synergistic mixtures to enhance the efficacy of herbicides was tested in vitro by leaf disc bioassays, in growth chamber trials with seedlings and in field trials with various different weed species.
as §1

[3] = application rate 0.1 % of volume
[4] = application rate 0.25 % of volume
[5] = application rate 0.5 % of volume

O=C(O)COc1ccc(Cl)cc1Cl [2,4-D, 2,4-dichlorophenoxyacetic acid]
necrosis and chlorosis 18 HAT [1, 3]: 0 | necrosis and chlorosis 36 HAT [1, 3]: 0 | necrosis and chlorosis 18 HAT [1, 4]: 0 | necrosis and chlorosis 36 HAT [1, 4]: 0 | necrosis and chlorosis 18 HAT [1, 5]: 0 | necrosis and chlorosis 36 HAT [1, 5]: 0 | damage of the leaf discs ([1]; substance alone, conditions of Table 4): do not show efficient damage | damage of plant leaves [2]: did not show any significant damage
